Results on one molecule are retold here after patent publication US20250114415A1, “METHOD FOR LOWERING CHOLESTEROL AND LIPID LEVELS USING THE ANTRODIA CINNAMOMEA WATER-INSOLUBLE DIETARY FIBER” (UNIVERSITY OF SHANGHAI FOR SCIENCE AND TECHNOLOGY, priority 2020, published 2025).

Marks after values point to notes of the source that are not given here.

In assay [1] the test system is mice fed with high-fat feed. The assay can be described thus: Lipid-lowering function test (animal test): serum lipids (HDL-C, LDL-C) of mice on high-fat feed. Particulars: gavage, 8 weeks. Type of assay: in vivo, C57BL/6 mice. How it is done: Samples: The water-insoluble dietary fiber component ACA-DK of Antrodia cinnamomea, which is prepared as a suspension of a certain concentration and placed at 4° C. for further use.
Test animals: 40 C57BL/6 SPF-grade mice weighing 18-22 g were purchased from Shanghai JieSijie Experimental Animal Co., Ltd. (license No. SCXK20180004). They were randomly divided into 4 groups with 10 mice in each group.
Test method: In test environment, the mice were divided into the following 4 groups: Normal group NG (gavage with normal saline), model group MG (high-fat diet), positive control group PG (gavage with lovastatin) and insoluble dietary fiber group LG. Mice in normal group NG were fed with basic feed, and mice in the rest of the groups were fed with high-fat feed. For mice in insoluble dietary fiber group LG, gavage with the dietary fiber was administered once a day for 8 weeks.
Feeding conditions: Mice were raised in an IVC system with a temperature of 18-22° C. and a relative humidity of 40-70%. License No. of the laboratory animal using license is SCXK20180004. The irradiated sterile feed for mice was purchased from Jiangsu Synergy Pharmaceutical Bioengineering Co., Ltd.
Basic feed: Flour 20%, bran 25%, corn 20%, rice flour 10%, soybean meal 20%, fish meal 2%, bone meal 2%, salt 0.9%, vitamin 0.1%;
High-fat feed: Lard 10%, sucrose 5%, cholesterol 1%, bile salt 0.3%, basic feed 83.7%. […]

In assay [2] the test system is mice fed with high-fat feed. In words: Lipid-lowering function test (animal test): TG and TC of mice on high-fat feed. Type of assay: in vivo, C57BL/6 mice. To be noted: gavage, 8 weeks.
From the text: SPSS 22.0 Software was used to statistically analyze the original data of each experiment, and the ANOVA program was used to test the significance of the data.

Take `CC[C@H](C)C(=O)O[C@H]1C[C@@H](C)C=C2C=C[C@H](C)[C@H](CC[C@@H]3C[C@@H](O)CC(=O)O3)[C@H]21` [lovastatin]: in assay [1], the HDL-C is given as 2.45 ± 0.20 ^D mmol/L and the LDL-C is 7.73 ± 3.07 ^b mmol/L. Also, in assay [2], the TC is 0.024 ± 0.005 ^a mmol/g prot and the TG was 0.031 ± 0.019 ^B mmol/g prot.
